Reference: DBAASP
≈ marks a conversion by molar mass, not a printed value. Where “and” joins values, the source holds several entries; their conditions need not be identical. Equal values may be shown once. One block for each molecule: values may come before it.

Columns and labels:
Assay in all cases: ≥ marks a high value that may be exact or a test limit, other limits are often not marked, values filed in µg/mL are converted to µM
Candida albicans SC5314 = tested on: Candida albicans SC5314
[1] = tested on: Candida tropicalis ATCC 13803
[2] = tested on: Candida parapsilosis ATCC 22019
Candida krusei ATCC 6258 = tested on: Candida krusei ATCC 6258
[3] = tested on: Listeria fleischmannii DSM 24998
[4] = tested on: Micrococcus luteus DSM 20030
Escherichia coli D31 = tested on: Escherichia coli D31
Listeria grayi DSM 20601 = tested on: Listeria grayi DSM 20601
[5] = tested on: Listeria monocytogenes DSM 20600
Streptococcus mutans = tested on: Streptococcus mutans
[6] = tested on: Mycobacterium tuberculosis mc2-6230
Streptococcus agalactiae = tested on: Streptococcus agalactiae
[7] = tested on: Mycobacterium tuberculosis mc2-6020
[8] = tested on: Streptococcus pneumoniae ATCC 49619
[9] = tested on: Staphylococcus aureus ATCC 25923
Klebsiella pneumoniae = tested on: Klebsiella pneumoniae
[10] = tested on: Pseudomonas aeruginosa ATCC 27853
[11] = tested on: Escherichia coli ATCC 25922
Streptococcus pyogenes = tested on: Streptococcus pyogenes
[12] = tested on: Staphylococcus aureus ATCC 9144
[13] = tested on: Aspergillus niger ATCC 16404
[14] = tested on: Candida glabrata ATCC 15126
[15] = tested on: Klebsiella pneumoniae ATCC 700603
[16] = tested on: Escherichia coli ATCC 23506
[17] = tested on: Pseudomonas aeruginosa ATCC 9027
[18] = tested on: Enterococcus faecalis PCM 2673
[19] = tested on: Candida albicans ATCC 10231
Bacillus subtilis PY79 = tested on: Bacillus subtilis PY79
[20] = tested on: Escherichia coli DH5alpha
[21] = tested on: Pseudomonas aeruginosa PAO1
[22] = tested on: Staphylococcus aureus ATCC 6538P
[23] = tested on: Pseudomonas aeruginosa PA14
[24] = tested on: Staphylococcus aureus ATCC 33591
Escherichia coli 1 = tested on: Escherichia coli 1
Pseudomonas aeruginosa 2 = tested on: Pseudomonas aeruginosa 2
Escherichia coli = tested on: Escherichia coli
[25] = tested on: Staphylococcus aureus 209P
Klebsiella pneumoniae 2 = tested on: Klebsiella pneumoniae 2
Klebsiella pneumoniae 1 = tested on: Klebsiella pneumoniae 1
Pseudomonas aeruginosa 1 = tested on: Pseudomonas aeruginosa 1
Escherichia coli C600 = tested on: Escherichia coli C600
[26] = tested on: Escherichia coli ESBL 63103
[27] = tested on: Pseudomonas aeruginosa H103
[28] = tested on: Pseudomonas aeruginosa 213
[29] = tested on: Pseudomonas aeruginosa LES400
[30] = tested on: Staphylococcus aureus C623
[31] = tested on: Enterococcus faecium mic80
Candida albicans C627 = tested on: Candida albicans C627
[32] = tested on: Staphylococcus aureus ATCC 33592
[33] = tested on: Staphylococcus aureus NCTC 8530

MIC (Candida albicans SC5314): ≥ 113 µM
MIC [1]: ≥ 56.6 µM
MIC [2]: ≥ 113 µM
MIC (Candida krusei ATCC 6258): ≥ 113 µM
SMILES: NCCCC[C@H](NC(=O)[C@H](Cc1ccc(O)cc1)NC(=O)[C@H](CCCCN)NC(=O)[C@@H](N)CS)C(=O)N[C@@H](Cc1c[nH]c2ccccc12)C(=O)N[C@@H](CCCN=C(N)N)C(=O)O [CKYKWR]

MIC [3]: 4 µM (≈ 5.75 µg/mL)
MIC [4]: 4 µM (≈ 5.75 µg/mL)
MIC (Escherichia coli D31): 8 µM (≈ 11.5 µg/mL)
MIC (Listeria grayi DSM 20601): 8 µM (≈ 11.5 µg/mL)
MIC [5]: 4 µM (≈ 5.75 µg/mL)
SMILES: CC[C@H](C)[C@H](N)C(=O)N[C@@H](Cc1ccccc1)C(=O)NCC(=O)N[C@@H](C)C(=O)N[C@H](C(=O)N[C@@H](Cc1c[nH]c2ccccc12)C(=O)N[C@@H](CO)C(=O)NCC(=O)N[C@H](C(=O)N[C@@H](CCCCN)C(=O)N[C@@H](CO)C(=O)N[C@@H](CC(C)C)C(=O)N[C@@H](Cc1ccccc1)C(N)=O)[C@@H](C)CC)[C@@H](C)CC [IFGAIWSGIKSLF]

MIC (Streptococcus mutans): 8 µM (≈ 14.5 µg/mL)
MIC [6]: ≥ 68 µM
MIC (Streptococcus agalactiae): ≥ 32 µM
MIC [7]: 16 µM (≈ 29 µg/mL)
MIC [8]: ≥ 32 µM
MIC [9]: 32 µM (≈ 58 µg/mL)
MIC (Klebsiella pneumoniae): 136 µM (≈ 247 µg/mL)
MIC [10]: 68 µM (≈ 123 µg/mL)
MIC [11]: 16 µM (≈ 29 µg/mL)
MIC (Streptococcus pyogenes): 4 µM (≈ 7.25 µg/mL)
SMILES: CC[C@H](C)[C@H](N)C(=O)N[C@@H](CCCN=C(N)N)C(=O)N[C@@H](CCCCN)C(=O)N[C@@H](CC(C)C)C(=O)N[C@@H](CCCCN)C(=O)N[C@@H](CO)C(=O)N[C@@H](Cc1c[nH]c2ccccc12)C(=O)N[C@@H](CCCCN)C(=O)N[C@@H](Cc1c[nH]c2ccccc12)C(=O)N[C@@H](CC(C)C)C(=O)N[C@@H](CCCN=C(N)N)C(=O)N[C@@H](Cc1c[nH]c2ccccc12)C(=O)N[C@@H](CC(C)C)C(=O)O [IRKLKSWKWLRWL]

MIC [12]: ≥ 45.8 µM
MIC [8]: ≥ 183 µM
MIC [9]: 45.8 µM (≈ 64 µg/mL)
MIC [13]: ≥ 183 µM
MIC [14]: ≥ 183 µM
MIC [15]: 91.6 µM (≈ 128 µg/mL)
MIC [16]: ≥ 183 µM
MIC [17]: 183 µM (≈ 256 µg/mL)
MIC [18]: ≥ 183 µM
MIC [11]: 183 µM (≈ 256 µg/mL)
MIC [19]: 183 µM (≈ 256 µg/mL)
SMILES: CC[C@H](C)[C@H](NC(=O)CNC(=O)[C@H](CCCN=C(N)N)NC(=O)[C@@H](NC(=O)[C@H](CC(C)C)NC(=O)[C@H](CO)NC(=O)CNC(=O)[C@@H](NC(=O)[C@@H](N)CC(C)C)[C@@H](C)CC)C(C)C)C(=O)N[C@@H](CC(C)C)C(=O)N1CCC[C@H]1C(=O)N[C@@H](CC(C)C)C(=O)N[C@@H](Cc1ccccc1)C(N)=O [LIGSLVRGILPLF]

MIC (Bacillus subtilis PY79): 25 µM (≈ 57.1 µg/mL)
MIC [15]: 6.25 µM (≈ 14.3 µg/mL)
MIC [20]: 12.5 µM (≈ 28.6 µg/mL)
MIC [21]: 25 µM (≈ 57.1 µg/mL)
MIC [22]: 3.12 µM (≈ 7.13 µg/mL)
MIC [23]: ≥ 50 µM
MIC [11]: 6.25 µM (≈ 14.3 µg/mL)
SMILES: CC(C)C[C@H](NC(=O)[C@H](CCCN=C(N)N)NC(=O)[C@@H](NC(=O)[C@H](CCCN=C(N)N)NC(=O)[C@@H](N)CC(C)C)C(C)C)C(=O)N[C@@H](C)C(=O)N[C@@H](CO)C(=O)N[C@@H](Cc1cnc[nH]1)C(=O)N[C@@H](CC(C)C)C(=O)N[C@@H](CCCN=C(N)N)C(=O)N[C@@H](CCCCN)C(=O)N[C@@H](CC(C)C)C(=O)N[C@@H](CCCN=C(N)N)C(=O)N[C@@H](CCCCN)C(=O)N[C@@H](CCCN=C(N)N)C(=O)N[C@@H](CC(C)C)C(=O)N[C@@H](CC(C)C)C(=O)N[C@@H](CCCN=C(N)N)C(=O)O [LRVRLASHLRKLRKRLLR]

MIC [24]: 0.06 µM (≈ 0.137 µg/mL)
MIC (Escherichia coli 1): 1 µM and 0.5 µM
MIC (Pseudomonas aeruginosa 2): 4 µM (≈ 9.13 µg/mL)
MIC (Escherichia coli): 1 µM (≈ 2.28 µg/mL)
MIC [25]: 1.56 µM (≈ 3.56 µg/mL)
MIC (Klebsiella pneumoniae 2): 2 µM (≈ 4.57 µg/mL)
MIC (Klebsiella pneumoniae 1): 1 µM and 2 µM
MIC [21]: 6.25 µM (≈ 14.3 µg/mL)
MIC (Pseudomonas aeruginosa 1): 2 µM and 4 µM
MIC (Escherichia coli C600): 1.56 µM (≈ 3.56 µg/mL)
SMILES: CC(C)[C@@H]1NC(=O)CNC(=O)[C@H](CCCN=C(N)N)NC(=O)[C@H](C(C)C)NC(=O)[C@H](CCCN=C(N)N)NC(=O)[C@H](C)NC(=O)[C@H](Cc2ccc(O)cc2)NC(=O)[C@H](C(C)C)NC(=O)[C@@H](NC(=O)[C@H](Cc2c[nH]c3ccccc23)NC(=O)[C@@H](N)CCCN=C(N)N)CSSC[C@@H](C(=O)N[C@@H](Cc2c[nH]c3ccccc23)C(=O)O)NC(=O)[C@H](CCCN=C(N)N)NC(=O)[C@H](CCCN=C(N)N)NC(=O)[C@H](Cc2ccc(O)cc2)NC(=O)[C@H](CCCN=C(N)N)NC1=O [RWCVYARVRGVRYRRCW]

MIC [26]: 10.9 µM (≈ 16 µg/mL)
MIC [27]: 2.72 µM (≈ 4 µg/mL)
MIC [9]: 5.43 µM (≈ 8 µg/mL)
MIC [28]: 21.7 µM (≈ 32 µg/mL)
MIC [29]: 21.7 µM (≈ 32 µg/mL)
MIC [30]: 2.72 µM (≈ 4 µg/mL)
MIC [31]: 21.7 µM (≈ 32 µg/mL)
MIC (Candida albicans C627): 2.72 µM (≈ 4 µg/mL)
SMILES: CC[C@H](C)[C@H](NC(=O)[C@H](Cc1c[nH]c2ccccc12)NC(=O)[C@H](CCCN=C(N)N)NC(=O)[C@H](Cc1c[nH]c2ccccc12)NC(=O)[C@H](Cc1c[nH]c2ccccc12)NC(=O)[C@H](CCCN=C(N)N)NC(=O)[C@H](CCCCN)NC(=O)[C@H](Cc1c[nH]c2ccccc12)NC(=O)[C@@H](N)CCCN=C(N)N)C(=O)O [RWKRWWRWI]

MIC [32]: 4 µM (≈ 6.06 µg/mL)
MIC [10]: 8 µM (≈ 12.1 µg/mL)
MIC [33]: 8 µM (≈ 12.1 µg/mL)
SMILES: CC[C@H](C)[C@H](NC(=O)[C@H](Cc1ccccc1)NC(=O)[C@H](CC(C)C)NC(=O)[C@H](CCCN=C(N)N)NC(=O)[C@@H](NC(=O)[C@H](CCCCN)NC(=O)[C@@H](NC(=O)[C@H](CC(C)C)NC(=O)[C@@H](N)C(C)C)[C@@H](C)CC)[C@@H](C)O)C(=O)N[C@@H](CCCCN)C(=O)N[C@@H](CCCN=C(N)N)C(=O)N[C@@H](CCCCN)C(=O)O [VLIKTRLFIKRK]
